Data as given in ChEMBL document CHEMBL5727650, “Heteroaryl substituted aminopyridine compounds” (2020).
pIC50: −log10 of the molar value.

Target: T1, Interleukin-1 receptor-associated kinase 4 (Homo sapiens, UniProt Q9NWZ3)
T1 sequence (Q9NWZ3 whole entry): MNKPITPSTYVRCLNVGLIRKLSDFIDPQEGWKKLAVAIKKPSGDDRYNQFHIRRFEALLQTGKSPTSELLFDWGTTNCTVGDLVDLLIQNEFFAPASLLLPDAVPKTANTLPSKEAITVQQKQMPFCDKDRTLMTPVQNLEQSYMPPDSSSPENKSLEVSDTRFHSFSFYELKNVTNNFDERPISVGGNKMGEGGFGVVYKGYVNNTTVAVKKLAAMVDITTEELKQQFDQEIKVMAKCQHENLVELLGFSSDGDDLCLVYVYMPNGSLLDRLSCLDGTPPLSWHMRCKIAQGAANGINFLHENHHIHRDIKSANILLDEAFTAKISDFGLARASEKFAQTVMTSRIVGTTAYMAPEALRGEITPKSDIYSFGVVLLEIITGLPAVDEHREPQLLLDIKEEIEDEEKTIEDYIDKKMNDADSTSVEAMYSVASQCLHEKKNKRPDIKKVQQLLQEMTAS
Test: IRAK4 Inhibition Assay: The assays were performed in U-bottom 384-well plates. The final assay volume was 30 μL prepared from 15 μL additions of enzyme and substrates (fluoresceinated peptide and ATP) and test compounds in assay buffer (20 mM HEPES pH 7.2, 10 mM MgCl2, 0.015% Brij 35 and 4 mM DTT). The reaction was initiated by the combination of IRAK4 with substrates and test compounds. The reaction mixture was incubated at room temperature for 60 min. and terminated by adding 45 μL of 35 mM EDTA to each sample. The reaction mixture was analyzed on the Caliper LABCHIP® 3000 (Caliper, Hopkinton, Mass.) by electrophoretic separation of the fluorescent substrate and phosphorylated product. Inhibition data were calculated by comparison to no enzyme control reactions for 100% inhibition and vehicle-only reactions for 0% inhibition. The final concentrations of reagents in the assays are ATP, 500 μM; FL-IPTSPITTTYFFFKKK peptide 1.5 μM; IRAK4, 0.6 nM; and DMSO, 1.6%.

Compound	pIC50
CC(C)(O)[C@H](F)CNC(=O)c1cnc(-c2cnn3cc(Cl)cnc23)cc1NC12CC(C1)C2	8.05
CC(=O)N[C@H]1CC[C@H](NC(=O)c2cnc(-c3cnn4cc(C#N)cnc34)cc2NC(C)C)CC1	7.82
CC(C)(F)CNc1cc(-c2cnn3cc(C#N)cnc23)ncc1C(=O)NC[C@@H](F)C(C)(C)O	7.92
COC(C)(C)[C@H]1CC[C@H](NC(=O)c2cnc(-c3cnc4cc(Cl)cnn34)cc2NC2COC2)CC1	8.15
CC(C)(O)[C@H](F)CNC(=O)c1cnc(-c2cnn3cc(C#N)cnc23)cc1NC1CCC(F)(F)C1O (some centres not stated)	7.89

Now those with a higher pIC50, led by results:

pIC50	Compound
8.70	CC(C)(C)Nc1cc(-c2cnc3cc(C#N)cnn23)ncc1C(=O)NC[C@@H](F)C(C)(C)O
8.70	CC1(Nc2cc(-c3cnc4cc(Cl)cnn34)ncc2C(=O)NC[C@H](F)C(C)(C)O)CC1
9.00	CC(C)(O)[C@H](F)CNC(=O)c1cnc(-c2cnn3cc(C#N)cnc23)cc1Nc1ccc(C(N)=O)cc1
8.70	CC(C)(O)[C@H](F)CNC(=O)c1cnc(-c2cnn3cc(C#N)cnc23)cc1NC1CCC1
8.70	CC(C)(O)[C@H](F)CNC(=O)c1cnc(-c2cnn3cc(C#N)cnc23)cc1Nc1ccn(CC(F)F)c1
8.70	CC(C)(O)[C@H](F)CNC(=O)c1cnc(-c2cnn3cc(Cl)cnc23)cc1Nc1ccn(CC(F)F)c1
8.30	CCCNc1cc(-c2cnn3cc(Cl)cnc23)ncc1C(=O)NC[C@@H](F)C(C)(C)O
